Measured values as given in US20220153741A1, “HETEROCYCLIC COMPOUNDS AS INHIBITORS OF KRAS G12C” (Guangdong Newopp Biopharmaceuticals Co., Ltd., priority 2019, published 2022).
Where two headings read alike, the source gives them in different places.

How the values were obtained:
[1] = amide bond
[2] = from CC(C)c1nccc(CCC(=O)O)c1-n1c(=O)[nH]c(=O)c2cc(F)c(-c3c(N)cccc3Cl)nc21; amide bond; 12-membered ring; T3P; DCE; 39.3 mM; 50.0 °C
[3] = system: pERK1/2 in NCI-H358 cells; assay: Phospho-ERK (pERK) assay in NCI-H358 cells; assay type: cell-based; conditions: 3 hours compound treatment, pERK1/2 antibody fluorescence
Description: Phospho-ERK (pERK) assay: NCI-H358 cells were seeded in 96-well plates (Greiner) in RPMI-1640 with 10% FBS 16 hours prior to compound treatment. Serial dilution of compounds was made and added to wells, and then incubated at 37° C. for 3 hours. After the treatment, cells were fixed with 3.7% formaldehyde (VWR) for 20 min at RT, followed by being permeabilized with ice-cold methanol at −20° C. for 20 min. The methanol was then dumped and replaced with Intercept® (PBS) Blocking Buffer (LiCOR) supplemented with 0.05% Tween-20 and incubated at RT for 1 hour with gentle rocking. The blocking buffer was then replaced with the blocking buffer containing pERK1/2 antibody (Cell Signaling) and incubated at 4° C. overnight with gentle rocking. The plate was washed 5 times with 1×PBS+0.1% Tween-20. The blocking buffer containing LiCOR IRDye 680RD secondary antibody (LiCOR,) was then added and incubated for 1 hour at RT with gentle rocking. After washing 5 times with 1×PBS+0.1% Tween-20, the plate was read using CLARIOstar plate reader (BMG LABTECH GmbH). IC50 values were determined as the concentration of 50% inhibition of the fluorescence signal compared to DMSO treated cells (A: IC50<0.1 μM; B: IC50 between 0.1 μM and 1 μM; C: IC50 between 1 μM and 10 μM; D: >10 μM; ND: not determined).

[4] = system: NCI-H358 (H358, KRAS G12C) cancer cell line; assay: 3D proliferation assay, NCI-H358 (CellTiter-Glo); assay type: cell-based; conditions: 96-well spheroid plate, 4 days
Description: (§1) 3D proliferation assay: NCI-H358 (H358, KRAS G12C) and LS513 (KRAS G12D) cancer cell lines were obtained from ATCC (American Type Culture Collection, VA). Cells were plated in 96-well spheroid plate (CORNING INC, NY)) in RPMI-1640 with 10% FBS. Compounds (11-point dilutions) and DMSO were added to the wells and incubated with cells for 4 days at 37° C. Cell viability was then determined by CellTiter-Glo (Promega, WI). IC50 values of compounds were determined as the concentration of 50% inhibition of cell viability compared to DMSO treated cells (A: IC50<0.1 μM; B: IC50 between 0.1 μM and 1 μM; C: IC50 between 1 μM and 10 μM; D: >10 μM; ND: not determined).

[5] = system: LS513 (KRAS G12D) cancer cell line; assay: 3D proliferation assay, LS513 (CellTiter-Glo); assay type: cell-based; conditions: 96-well spheroid plate, 4 days
Description: as §1

| Compound | IC50 ([3]; Homo sapiens, NCI-H358, 3 h) [µM] | IC50 ([4]; Homo sapiens, NCI-H358, 96 h) [µM] | IC50 ([5]; Homo sapiens, LS-513, 96 h) [µM] | also measured |
| --- | --- | --- | --- | --- |
| CC(C)c1cccc2c1-n1c(=O)[nH]c(=O)c3cc(F)c(nc31)-c1c(F)cccc1NC(=O)CN2 |  |  |  | ring closure, yield of all isomers ([1]; from CC(C)c1cccc(NCC(=O)O)c1-n1c(=O)[nH]c(=O)c2cc(F)c(-c3c(N)cccc3F)nc21, TCFH/N-methylimidazole/pyridine, MeCN/DMF (1:1), 66.0 mM, 11.0 h): 32.7% |
| CC(C)c1nccc2c1-n1c(=O)[nH]c(=O)c3cc(F)c(nc31)-c1c(Cl)cccc1NC(=O)CC2 |  |  |  | ring closure, isolated yield [2]: 29%; ring closure, yield of all isomers ([1]; from CC(C)c1nccc(CCC(=O)O)c1-n1c(=O)[nH]c(=O)c2cc(F)c(-c3c(N)cccc3Cl)nc21, T3P, DCE, 39.3 mM, 50.0 °C, 1.0 h): 29% |
| CC(C)c1nccc2c1-n1c(=O)[nH]c(=O)c3cc(F)c(nc31)-c1c(F)cccc1NC(=O)CCS2 |  |  |  | ring closure, yield of all isomers ([1]; from CC(C)c1nccc(SCCC(=O)O)c1-n1c(=O)[nH]c(=O)c2cc(F)c(-c3c(N)cccc3F)nc21, T3P, DCE, 58.3 mM, 55.0 °C, 16.0 h): 37.4% |
| CC(C)c1nccc2c1-n1c(=O)nc(O)c3cc(F)c(nc31)-c1c(F)cccc1NC(=O)CC2 |  |  |  | ring closure, yield of all isomers ([1]; from CC(C)c1nccc(CCC(=O)O)c1-n1c(=O)nc(O)c2cc(F)c(-c3c(N)cccc3F)nc21, TCFH/NMI, DMF, 37.0 mM, 25.0 °C, 1.0 h): 46.7% |
| CC(C)c1nccc2c1-n1c(=O)nc(O)c3cc(F)c(nc31)-c1c(F)cccc1NC(=O)CS2 |  |  |  | ring closure, yield of all isomers ([1]; from CC(C)c1nccc(SCC(=O)OC(C)(C)C)c1-n1c(=O)nc(O)c2cc(F)c(-c3c(N)cccc3F)nc21, TCFH/N-methylimidazole, DMF, 7.2 mM, 25.0 °C, 1.0 h, 2 steps): 44.4% |
| C=CC(=O)N1CCN(c2nc(=O)n3c4nc(c(F)cc24)-c2c(F)cccc2NCCCc2ccnc(C(C)C)c2-3)[C@@H](C)C1 (single isomer, unassigned) [Example 2B] |  |  |  | IC50 [3]: 0.1 to 1 µM; IC50 [4]: 0.1 to 1 µM; IC50 [5]: > 10 µM |
| C=CC(=O)N1CCN(c2nc(=O)n3c4nc(c(F)cc24)-c2c(F)cccc2NC(=O)CCc2ccnc(C(C)C)c2-3)[C@@H](C)C1 [Example 1, (S)-2^4-(4-Acryloyl-2-methylpiperazin-1-yl)-2^6,3^6-difluoro-1^2-isopropyl-2^1,2^2-dihydro-4-aza-2(1,7)-pyrido[2,3-d]pyrimidina-1(3,4)-pyridina-3(1,2)-benzenacycloheptaphane-2^2,5-dione] | 0.1 to 1 | < 0.1 | > 10 |  |
| C=CC(=O)N1CCN(c2nc(=O)n3c4nc(c(F)cc24)-c2c(F)cccc2N(C)CCCc2ccnc(C(C)C)c2-3)[C@@H](C)C1 [Example 4, (S)-2^4-(4-acryloyl-2-methylpiperazin-1-yl)-2^6,3^6-difluoro-1^2-isopropyl-4-methyl-2^1,2^2-dihydro-4-aza-2(1,7)-pyrido[2,3-d]pyrimidina-1(3,4)-pyridina-3(1,2)-benzenacycloheptaphan-2^2-one] | < 0.1 | < 0.1 | > 10 |  |
| C=CC(=O)N1C[C@H](C)N(c2nc(=O)n3c4nc(c(F)cc24)-c2c(F)cccc2NCCCc2ccnc(C(C)C)c2-3)C[C@H]1C [Example 7A, 2^4-((2S,5R)-4-acryloyl-2,5-dimethylpiperazin-1-yl)-2^6,3^6-difluoro-1^2-isopropyl-2^1,2^2-dihydro-4-aza-2(1,7)-pyrido[2,3-d]pyrimidina-1(3,4)-pyridina-3(1,2)-benzenacycloheptaphan-2^2-one] | 0.1 to 1 | 0.1 to 1 | > 10 |  |
| C=CC(=O)N1C[C@H](C)N(c2nc(=O)n3c4nc(c(F)cc24)-c2c(F)cccc2NCCCc2ccnc(C(C)C)c2-3)C[C@H]1C [Example 7B, 2^4-((2S,5R)-4-acryloyl-2,5-dimethylpiperazin-1-yl)-2^6,3^6-difluoro-1^2-isopropyl-2^1,2^2-dihydro-4-aza-2(1,7)-pyrido[2,3-d]pyrimidina-1(3,4)-pyridina-3(1,2)-benzenacycloheptaphan-2^2-one] |  |  |  | IC50 [3]: < 0.1 µM; IC50 [4]: < 0.1 µM; IC50 [5]: > 10 µM |
| (S)-2^4-(4-acryloyl-2-methylpiperazin-1-yl)-2^6,3^6-difluoro-1^2-isopropyl-2^1,2^2-dihydro-8-thia-4-aza-2(1,7)-pyrido[2,3-d]pyrimidina-1(3,4)-pyridina-3(1,2)-benzenacyclooctaphan-2^2-one [Example 8] |  |  |  | IC50 [3]: < 0.1 µM; IC50 [4]: < 0.1 µM; IC50 [5]: > 10 µM |

Further lines, with some results ahead:

| IC50 ([3]; Homo sapiens, NCI-H358, 3 h) [µM] | IC50 ([4]; Homo sapiens, NCI-H358, 96 h) [µM] | IC50 ([5]; Homo sapiens, LS-513, 96 h) [µM] | Compound | also measured |
| --- | --- | --- | --- | --- |
| < 0.1 | < 0.1 | > 10 | C=CC(=O)N1CCN(c2nc(=O)n3c4nc(c(F)cc24)-c2c(F)cccc2NCCSc2ccnc(C(C)C)c2-3)[C@@H](C)C1 [Example 9, (S)-2^4-(4-acryloyl-2-methylpiperazin-1-yl)-2^6,3^6-difluoro-1^2-isopropyl-2^1,2^2-dihydro-7-thia-4-aza-2(1,7)-pyrido[2,3-d]pyrimidina-1(3,4)-pyridina-3(1,2)-benzenacycloheptaphan-2^2-one] |  |
| < 0.1 | < 0.1 | > 10 | C=CC(=O)N1CCN(c2nc(=O)n3c4nc(c(F)cc24)-c2c(Cl)cccc2NCCCc2ccnc(C(C)C)c2-3)[C@@H](C)C1 [Example 10, (S)-2^4-(4-acryloyl-2-methylpiperazin-1-yl)-3^6-chloro-2^6-fluoro-1^2-isopropyl-2^1,2^2-dihydro-4-aza-2(1,7)-pyrido[2,3-d]pyrimidina-1(3,4)-pyridina-3(1,2)-benzenacycloheptaphan-2^2-one] |  |
| 0.1 to 1 | 0.1 to 1 | > 10 | C=CC(=O)N1CCN(c2nc(=O)n3c4nc(c(F)cc24)-c2c(F)cccc2N(C(=O)C(C)(C)O)CCCc2ccnc(C(C)C)c2-3)[C@@H](C)C1 [Example 15, (S)-2^4-(4-acryloyl-2-methylpiperazin-1-yl)-2^6,3^6-difluoro-4-(2-hydroxy-2-methylpropanoyl)-1^2-isopropyl-2^1,2^2-dihydro-4-aza-2(1,7)-pyrido[2,3-d]pyrimidina-1(3,4)-pyridina-3(1,2)-benzenacycloheptaphan-2^2-one] |  |
| 0.1 to 1 | < 0.1 | 1 to 10 | C=CC(=O)N1CCN(c2nc(=O)n3c4nc(c(F)cc24)-c2c(F)cccc2NCCCc2cccc(C(C)C)c2-3)[C@@H](C)C1 [Example 17, (S)-2^4-(4-acryloyl-2-methylpiperazin-1-yl)-2^6,3^6-difluoro-1^6-isopropyl-2^1,2^2-dihydro-4-aza-2(1,7)-pyrido[2,3-d]pyrimidina-1,3(1,2)-dibenzenacycloheptaphan-2^2-one] |  |
| < 0.1 | < 0.1 | 1 to 10 | C=CC(=O)N1CCN(c2nc(=O)n3c4nc(c(F)cc24)-c2c(F)cccc2N(C)CCCc2cccc(C(C)C)c2-3)[C@@H](C)C1 [Example 19, (S)-2^4-(4-acryloyl-2-methylpiperazin-1-yl)-2^6,3^6-difluoro-1^6-isopropyl-4-methyl-2^1,2^2-dihydro-4-aza-2(1,7)-pyrido[2,3-d]pyrimidina-1,3(1,2)-dibenzenacycloheptaphan-2^2-one] |  |
| < 0.1 | < 0.1 | > 10 | C=CC(=O)N1C[C@H](C)N(c2nc(=O)n3c4nc(c(F)cc24)-c2c(F)cccc2NCCCc2cccc(C(C)C)c2-3)C[C@H]1C [Example 20, 2^4-((2S,5R)-4-acryloyl-2,5-dimethylpiperazin-1-yl)-2^6,3^6-difluoro-1^6-isopropyl-2^1,2^2-dihydro-4-aza-2(1,7)-pyrido[2,3-d]pyrimidina-1,3(1,2)-dibenzenacycloheptaphan-2^2-one] |  |
| 0.1 to 1 | < 0.1 | 0.1 to 1 | C=CC(=O)N1CCN(c2nc(=O)n3c4nc(c(F)cc24)-c2c(F)cccc2NCCCNc2cccc(C(C)C)c2-3)[C@@H](C)C1 [Example 22, (S)-2^4-(4-acryloyl-2-methylpiperazin-1-yl)-2^6,3^6-difluoro-1^6-isopropyl-2^1,2^2-dihydro-4,8-diaza-2(1,7)-pyrido[2,3-d]pyrimidina-1,3(1,2)-dibenzenacyclooctaphan-2^2-one] |  |
| 0.1 to 1 | < 0.1 | > 10 | C=CC(=O)N1CCN(c2nc(=O)n3c4nc(c(F)cc24)-c2c(F)cccc2NCCCN(C)c2cccc(C(C)C)c2-3)[C@@H](C)C1 [Example 28, (S)-2^4-(4-acryloyl-2-methylpiperazin-1-yl)-2^6,3^6-difluoro-1^6-isopropyl-8-methyl-2^1,2^2-dihydro-4,8-diaza-2(1,7)-pyrido[2,3-d]pyrimidina-1,3(1,2)-dibenzenacyclooctaphan-2^2-one] |  |
